Measurements from US10087142B2, “Azetidine derivatives useful as modulators of cortical cathecolaminergic neurotransmission” (Integrative Research Laboratories Sweden AB, priority 2015, dated 2018).

Tests used:
Arc mRNA = experiment: m-RNA analysis: Arc mRNA tissue levels in brain regions; type: in vivo, rat; conditions: 33 μmol/kg s.c., rats, 65 min before sacrifice, n = 5; for Arc frontal cortex ± SEM: frontal cortex tissue; for Arc striatum ± SEM: striatum tissue
Experimental: Sesack et al. (Anatom Substr Glut-Dopamine Inter. Annals of NY AcadSci, 2003, 1003; 36-52) discloses that the dopaminergic systems of the brain interact strongly with central glutamate neurotransmission. To investigate potential effects of compounds as disclosed herein on cortical and striatal NMDA type glutamate receptor related synaptic signaling, Arc mRNA induction was assessed upon acute administration. Arc (Arc/Arg3.1-activity regulated cytoskeleton-associated protein/activity-regulated gene 3.1; (Link W et al., Proc Natl Acad Sci, USA, 1995, 92; 5734-8 and Lyford G L et al., Neuron, 1995, 14; 433-45), is an immediate early gene (IEG), induced by synaptic activity, whose expression and localization at synaptic sites is triggered specifically by NMDA receptor activation and strongly related to neural plasticity (Steward and Worley, Neuron, 2001, 30; 227-40, Kawashima et al., PNAS, 2009, 106(1); 316-21 and Bramham et al., Exp Brain Res, 2010, 200; 125-40).
[…] were dissected into […] different areas: Limbic system (containing nucleus accumbens, most parts of the olfactory tubercle, ventral pallidum), striatum, frontal cortex, hippocampus and the remaining cortex.
Total RNA was prepared by the guanidin isothiocyanate method (Chomczynski P and Sacchi N, Anal Biochem, 1987, 162(1); 156-9). RNA pellets were solved in RNAse-free water and stored at −80° C. The sample concentration was determined spectrophotometrically by a NanoDrop ND1000 (Saveen Werner). A quality indicator number and an integrity number of r-RNA were measured with an Experion (Bio-rad).
A two-step reversed transcription was performed by using a SuperScript III kit (Invitrogen). 1 μg of total RNA was reverse transcribed with 5 μl 2×RT Reaction Mix, 1 μl RT Enzyme Mix, in a total volume adjusted to 10 μl with DEPC-treated water. 1 U of E. coli RNase H was added. c-DNA was diluted 40 times and stored at −20° C.
Three sequences (one gene of interest and two reference genes) were amplified together in a triplex PCR-reaction. For real-time PCR measurements: 5 μl of c-DNA reaction was amplified in a 20 μl reaction mixture containing 10 μl PerfeCta Multiplex qPCR Supermix (Quanta, VWR), 3.5 μl RNAse-free water, 0.15 μM of each primer and 0.1 μM of each probe. Real-time PCR was measured on CFX96 (Bio-rad) using the following settings for all genes: 3 min pre-incubation at 95° C. followed by 40 cycles of denaturation at 95° C. for 15 s, annealing and elongation at 60° C. for 1 minute.
Reference genes are HPRT and cyclophilin.
The primer and probe sequences are as follows for measuring of arc:
Correct PCR products are confirmed by agarose gel electrophoresis (2%) PCR products are purified with PCR purification kit from Qiagen (Valencia, Calif., USA). All genes are sequenced at MWG, Germany. […]

[1] = tested on: non-pre-treated Sprague-Dawley rats; experiment: Locomotor activity in drug-naïve rats (behaviour test); type: in vivo, rat; conditions: recorded 60 minutes, n = 5
Experimental: The effect of compounds in the present disclosure on locomotor activity in drug-naïve rats was also investigated. The animals were placed in the motility meters immediately after drug administration and locomotor activity was recorded for 60 minutes (counts/60 min±SEM). The results are presented as percent of control.
Behavioural activity was measured using eight Digiscan activity monitors (RXYZM (16) TAO, Omnitech Electronics, Columbus, Ohio, USA), connected to an Omnitech Digiscan analyzer and an Apple Macintosh computer equipped with a digital interface board (NB DIO-24, National Instruments, USA). Each activity monitor consisted of a quadratic metal frame (W×L=40 cm×40 cm) equipped with photo beam sensors. During measurements of behavioural activity, a rat was put in a transparent acrylic cage (W×L×H, 40×40×30 cm) which in turn was placed in the activity monitor. Each activity monitor was equipped with three rows of infrared photo beam sensors, each row consisting of 16 sensors. Two rows were placed along the front and the side of the floor of the cage, at a 90° angle, and the third row was placed 10 cm above the floor to measure vertical activity. Photo beam sensors were spaced 2.5 cm apart. Each activity monitor was fitted in an identical sound and light attenuating box containing a weak house light and a fan.
The computer software was written using object oriented programming (LabVIEW™, National instruments, Austin, Tex., USA).
Behavioural data from each activity monitor, representing the position (horizontal center of gravity and vertical activity) of the animal at each time, were recorded at a sampling frequency of 25 Hz and collected using a custom written LABView™ application. The data from each recording session were stored and analyzed with respect to distance traveled. Each behavioural recording session lasted 60 min, starting approximately 5 min after the injection of test compound.
Compounds disclosed herein have been tested for effects on spontaneous locomotor activity in non-pre-treated Sprague-Dawley rats (based on accumulated distance traveled 0-60 min post dosing), and with doses up to 33 μmol/kg (s.c.).

SMILES	Arc frontal cortex ± SEM (Arc mRNA)	Arc striatum ± SEM (Arc mRNA)	locomotor activity, percent of control means ([1]; 11 μmol/kg s.c.) [%]	locomotor activity, percent of control means ([1]; 33 μmol/kg s.c.) [%]
Cl.Fc1cccc(C(F)C2CNC2)c1F (single isomer, unassigned; (-)) [Example 1, (−)-3-[(2,3-Difluorophenyl)(Fluoro)Methyl]Azetidine Hydrochloric Acid Salt]	169 ± 8% of control means	133 ± 9% of control means	61	91
Fc1cc(F)cc(C(F)C2CNC2)c1.O=C(O)/C=C/C(=O)O (single isomer, unassigned; (-)) [Example 3, (−)-3-[(3,5-Difluorophenyl)(Fluoro)Methyl]Azetidine Fumarate Salt]	137 ± 6% of control means	90 ± 7% of control means	68	46
